Assay results taken from patent US4551547A, “Biocidal 2-aryl-1, 3-cyclopentanedione enol ester compounds” (Union Carbide Corporation, priority 1983, dated 1985).
≈ marks a conversion by molar mass, not a printed value.

Experiments:
Cotton = assay: Post-emergent herbicidal test, cotton; type: in vivo; design: key: 1: no perceptible injury; 2: intermediate degrees of injury; 3: intermediate degrees of injury; 4: intermediate degrees of injury; 5: the plant was dead; details: 2500 parts per million, after ten days; for Post-emergent Herbicidal, Cotton: Table II; for Post Emergent Herbicidal, Cotton: Table III
Outline: (§1)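 Compounds dispersed in acetone/surfactant/water and sprayed at 2500 ppm onto foliage of healthy plants. Plants kept in greenhouse; foliar injury scored visually after ten days on a 1 (no injury) to 5 (dead) scale.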

Tomato = assay: Post-emergent herbicidal test, tomato; type: in vivo; design: key: 1: no perceptible injury; 2: intermediate degrees of injury; 3: intermediate degrees of injury; 4: intermediate degrees of injury; 5: the plant was dead; details: 2500 parts per million, after ten days; for Post-emergent Herbicidal, Tomato: Table II; for Post Emergent Herbicidal, Tomato: Table III
Outline: as §1

Corn = assay: Post-emergent herbicidal test, corn; type: in vivo; design: key: 1: no perceptible injury; 2: intermediate degrees of injury; 3: intermediate degrees of injury; 4: intermediate degrees of injury; 5: the plant was dead; details: 2500 parts per million, after ten days; for Post-emergent Herbicidal, Corn: Table II; for Post Emergent Herbicidal, Corn: Table III
Outline: as §1

[1] = system: egg of the two-spotted mite; assay: Mite Ovicide Test (eggs); type: in vivo, Tetranychus urticae (Koch); design: key to Miticidal, Egg: A: Excellent Control; B: Partial Control; No Control; details: for Miticidal, Egg: Table II, unhatched eggs after four days; for LC50: Tetranychus urticae, Table III, ppm required for a 50 percent kill of eggs, read-out: Miticidal LD50, Egg
Outline: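 Tetranychus urticae eggs laid over 48 h on bean plants (adults then killed with tetraethyl pyrophosphate) were sprayed to run-off with aqueous acetone/emulsifier suspensions at graded ppm; solvent-sprayed controls. After 4 days at 80±5 °F, 50±5% RH, hatched versus unhatched eggs counted microscopically; ppm for 50% egg kill reported.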

Perennial rye grass = assay: Preliminary herbicide seed germination test (pre-emergent), perennial rye grass; type: in vivo, Solium perenne; design: key: 5: no seedling emerged; 4: few seedlings emerged and/or very severe stunting; 3: moderate reduction in stand and/or moderate stunting.; 2: very slight reduction in stand and/or slight stunting; 1: no injury, seedlings appear no different with respect to stand or growth than untreated controls; details: ten to twelve days after application
Outline: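 Compounds formulated in acetone with alkylphenoxyethanol surfactant and diluted in water to ppm test levels. Perennial rye grass seed-soil mixtures potted and drenched with 25 mL formulation about 2 h after planting, in the greenhouse. Controls received solvent and emulsifier without compound, and pre-emergent effects were rated on a scale.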

Crabgrass = assay: Preliminary herbicide seed germination test (pre-emergent), crabgrass; type: in vivo, Digitaria sanguinalis; design: key: 5: no seedling emerged; 4: few seedlings emerged and/or very severe stunting; 3: moderate reduction in stand and/or moderate stunting.; 2: very slight reduction in stand and/or slight stunting; 1: no injury, seedlings appear no different with respect to stand or growth than untreated controls; details: ten to twelve days after application
Outline: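 Crabgrass (Digitaria sanguinalis) seed-soil mixtures in pots were drenched about 2 h after planting with 25 mL of compound suspension, diluted in water from an acetone/alkylphenoxyethanol-emulsified stock. Each compound was tested at the same ppm concentration. Solvent-emulsifier blanks served as controls; effects were rated visually.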

[2] = system: Red root pigweed (Amaranthus); assay: Preliminary herbicide seed germination test (pre-emergent), red root pigweed; type: in vivo, Amaranthus retroflexus; design: key: 5: no seedling emerged; 4: few seedlings emerged and/or very severe stunting; 3: moderate reduction in stand and/or moderate stunting.; 2: very slight reduction in stand and/or slight stunting; 1: no injury, seedlings appear no different with respect to stand or growth than untreated controls; details: ten to twelve days after application
Outline: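 Pre-emergent pot test in the greenhouse with Amaranthus retroflexus seed mixed into soil. About 2 h after planting, 25 mL of aqueous formulation (diluted from a 0.5% w/w acetone/surfactant stock) was applied per pot, with concentration given in ppm. Solvent/emulsifier-only pots served as controls, and effects were scored on a rating scale.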

Mustard = assay: Preliminary herbicide seed germination test (pre-emergent), mustard; type: in vivo, Brassica pincea var. foliosa (Florida broadleaf); design: key: 5: no seedling emerged; 4: few seedlings emerged and/or very severe stunting; 3: moderate reduction in stand and/or moderate stunting.; 2: very slight reduction in stand and/or slight stunting; 1: no injury, seedlings appear no different with respect to stand or growth than untreated controls; details: ten to twelve days after application
Outline: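 Stock suspension (0.5% w/w compound in acetone with alkylphenoxyethanol surfactant, emulsified in water) diluted with water to test concentration; 25 mL applied pre-emergence to greenhouse pots of mustard seed–soil mixture ~2 h after planting. Solvent/emulsifier-only controls; injury rated visually.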

Q: For CCCCC(CC)C(=O)OC1=C(c2ccccc2Cl)C(=O)CC1 (stereo not shown) [Compound 1], which “Post-emergent Herbicidal, Cotton” value (Cotton) is on record?
A: The value was 3.

Q: And the “Post-emergent Herbicidal, Tomato” value (Tomato)?
A: The value was 2.

Q: What about the “Post-emergent Herbicidal, Corn” value (Corn) of the same molecule?
A: Its value is 4.

Q: And the “Miticidal, Egg” value [1]?
A: Its value is “A”.

Q: And the “Pre-emergent Herbicidal, Rye” value (Perennial rye grass; Table II)?
A: Its value is 5.

Q: And the “Pre-emergent Herbicidal, Crabgrass” value (Crabgrass; Table II)?
A: The value was 5.

Q: And the “Pre-emergent Herbicidal, Amaranthus” value ([2]; Table II)?
A: Its value is 5.

Q: And the “Pre-emergent Herbicidal, Mustard” value (Mustard; Table II)?
A: Its value is 5.

Q: CCCCCCCCCC(=O)OC1=C(c2cc(C)ccc2C)C(=O)c2ccccc21 [reference compound] was tested. Which “Post Emergent Herbicidal, Cotton” value (Cotton) did it give?
A: Its value is 1.

Q: And the “Post Emergent Herbicidal, Tomato” value (Tomato)?
A: Its value is 1.

Q: And the “Post Emergent Herbicidal, Corn” value (Corn)?
A: Its value is 1.

Q: And the LC50 [1]?
A: The LC50 was 500 µg/mL (≈ 1240 µM).

Q: What about the “Pre-emergent Herbicidal, Rye” value (Perennial rye grass; Table III) of the same molecule?
A: The value was 1.

Q: And the “Pre-emergent Herbicidal, Crabgrass” value (Crabgrass; Table III)?
A: Its value is 1.

Q: And the “Pre-emergent Herbicidal, Amaranthus” value ([2]; Table III)?
A: Its value is 1.

Q: What about the “Pre-emergent Herbicidal, Mustard” value (Mustard; Table III) of the same molecule?
A: The value was 1.

Q: For Cc1ccccc1C1=C(OC(=O)C(C)(C)C)C2CCCCC2C1=O (stereo not shown) [drawing 24], which “Post Emergent Herbicidal, Cotton” value (Cotton) is on record?
A: The value was 3.

Q: What about the “Post Emergent Herbicidal, Tomato” value (Tomato) of the same molecule?
A: The value was 1.

Q: What about the “Post Emergent Herbicidal, Corn” value (Corn) of the same molecule?
A: Its value is 5.

Q: And the LC50 [1]?
A: The LC50 was 16 µg/mL (≈ 49 µM).

Q: What about the “Pre-emergent Herbicidal, Rye” value (Perennial rye grass; Table III) of the same molecule?
A: The value was 5.

Q: What about the “Pre-emergent Herbicidal, Crabgrass” value (Crabgrass; Table III) of the same molecule?
A: The value was 3.

Q: What about the “Pre-emergent Herbicidal, Amaranthus” value ([2]; Table III) of the same molecule?
A: The value was 2.

Q: What about the “Pre-emergent Herbicidal, Mustard” value (Mustard; Table III) of the same molecule?
A: The value was 3.

Q: Which “Post-emergent Herbicidal, Cotton” value (Cotton) does the source give for Cc1ccc(C2=C(OC(=O)c3ccccc3)C3CCCCC3C2=O)c(C)c1 (stereo not shown) [Compound 27, 3-benzoyloxy-2-(2',4'-dimethylphenyl)-4,5,6,7,8,9-hexahydro-2-indenone] here?
A: The value was 2.

Q: What about the “Post-emergent Herbicidal, Tomato” value (Tomato) of the same molecule?
A: Its value is 2.

Q: What about the “Post-emergent Herbicidal, Corn” value (Corn) of the same molecule?
A: Its value is 4.

Q: What about the “Miticidal, Egg” value [1] of the same molecule?
A: The value was “A”.

Q: And the “Pre-emergent Herbicidal, Rye” value (Perennial rye grass; Table II)?
A: Its value is 5.

Q: And the “Pre-emergent Herbicidal, Crabgrass” value (Crabgrass; Table II)?
A: Its value is 5.

Q: What about the “Pre-emergent Herbicidal, Amaranthus” value ([2]; Table II) of the same molecule?
A: Its value is 4.

Q: What about the “Pre-emergent Herbicidal, Mustard” value (Mustard; Table II) of the same molecule?
A: The value was 5.

Q: How did the “Post-emergent Herbicidal, Cotton” value (Cotton) turn out when Cc1ccc(C)c(C2=C(OC(=O)C(C)(C)C)C3CCCCC3C2=O)c1 (stereo not shown) [Compound 31] was run?
A: Its value is 1.

Q: And the “Post-emergent Herbicidal, Tomato” value (Tomato)?
A: The value was 1.

Q: What about the “Post-emergent Herbicidal, Corn” value (Corn) of the same molecule?
A: Its value is 2.

Q: And the “Miticidal, Egg” value [1]?
A: Its value is “A”.

Q: And the “Pre-emergent Herbicidal, Rye” value (Perennial rye grass; Table II)?
A: Its value is 1.

Q: And the “Pre-emergent Herbicidal, Crabgrass” value (Crabgrass; Table II)?
A: The value was 1.

Q: And the “Pre-emergent Herbicidal, Amaranthus” value ([2]; Table II)?
A: Its value is 1.

Q: What about the “Pre-emergent Herbicidal, Mustard” value (Mustard; Table II) of the same molecule?
A: The value was 1.

Q: CCCCCCCCCCCCCCCC(=O)OC1=C(c2ccccc2C)C(=O)CC1 [Compound 8] was tested. Which “Post-emergent Herbicidal, Cotton” value (Cotton) did it give?
A: Its value is 2.

Q: What about the “Post-emergent Herbicidal, Tomato” value (Tomato) of the same molecule?
A: The value was 1.

Q: What about the “Post-emergent Herbicidal, Corn” value (Corn) of the same molecule?
A: The value was 3.

Q: What about the “Miticidal, Egg” value [1] of the same molecule?
A: Its value is “B”.

Q: And the “Pre-emergent Herbicidal, Rye” value (Perennial rye grass; Table II)?
A: The value was 2.

Q: What about the “Pre-emergent Herbicidal, Crabgrass” value (Crabgrass; Table II) of the same molecule?
A: Its value is 2.

Q: And the “Pre-emergent Herbicidal, Amaranthus” value ([2]; Table II)?
A: Its value is 3.

Q: And the “Pre-emergent Herbicidal, Mustard” value (Mustard; Table II)?
A: The value was 1.

Q: CCCCCCCCCC(=O)OC1=C(c2cc(C)ccc2C)C(=O)C2CCCCC12 (stereo not shown) [Compound 32] was tested. Which “Post-emergent Herbicidal, Cotton” value (Cotton) did it give?
A: Its value is 1.

Q: What about the “Post-emergent Herbicidal, Tomato” value (Tomato) of the same molecule?
A: Its value is 1.

Q: What about the “Post-emergent Herbicidal, Corn” value (Corn) of the same molecule?
A: The value was 2.

Q: What about the “Miticidal, Egg” value [1] of the same molecule?
A: Its value is “A”.

Q: What about the “Pre-emergent Herbicidal, Rye” value (Perennial rye grass; Table II) of the same molecule?
A: The value was 1.

Q: And the “Pre-emergent Herbicidal, Crabgrass” value (Crabgrass; Table II)?
A: Its value is 1.

Q: And the “Pre-emergent Herbicidal, Amaranthus” value ([2]; Table II)?
A: The value was 1.

Q: What about the “Pre-emergent Herbicidal, Mustard” value (Mustard; Table II) of the same molecule?
A: The value was 1.

Q: How did the “Post Emergent Herbicidal, Cotton” value (Cotton) turn out when CCCCC(CC)C(=O)OC1=C(c2ccccc2C)C(=O)c2ccccc21 (stereo not shown) [reference compound] was run?
A: The value was 1.

Q: What about the “Post Emergent Herbicidal, Tomato” value (Tomato) of the same molecule?
A: Its value is 1.

Q: What about the “Post Emergent Herbicidal, Corn” value (Corn) of the same molecule?
A: The value was 1.

Q: What about the LC50 [1] of the same molecule?
A: The LC50 was 60 µg/mL (≈ 166 µM).

Q: And the “Pre-emergent Herbicidal, Rye” value (Perennial rye grass; Table III)?
A: Its value is 1.

Q: What about the “Pre-emergent Herbicidal, Crabgrass” value (Crabgrass; Table III) of the same molecule?
A: Its value is 1.

Q: What about the “Pre-emergent Herbicidal, Amaranthus” value ([2]; Table III) of the same molecule?
A: The value was 1.

Q: And the “Pre-emergent Herbicidal, Mustard” value (Mustard; Table III)?
A: The value was 1.
